Results taken from ChEMBL document CHEMBL1156350, “New multiflorane-type triterpenoid acids from Sandoricum indicum” (J Nat Prod, 2001).
In brackets after ≈: the same amount, converted by molar mass.

Assays:
Type in all cases: functional, cell-based
Lymphocyte = test: Immunosuppressant activity in mouse lymphocytes assessed as inhibition of lymphocyte proliferation
P388/S = test: Cytotoxicity against drug-sensitive mouse P388/S cells
P388 [1] = test: Cytotoxicity against vincristine-resistant mouse P388 cells
P388 [2] = test: Cytotoxicity against vincristine-resistant mouse P388 cells in presence of vincristine
P388 [3] = test: Cytotoxicity against adriamycin-resistant mouse P388 cells
P388 [4] = test: Cytotoxicity against adriamycin-resistant mouse P388 cells in presence of adriamycin
HL-60 = test: Cytotoxicity against human HL60 cells

| Structure (SMILES) | IC50 (Lymphocyte) [µg/mL] | IC50 (P388/S) [µg/mL] | IC50 (P388 [1]) [µg/mL] | IC50 (P388 [2]) [µg/mL] | IC50 (P388 [3]) [µg/mL] | IC50 (P388 [4]) [µg/mL] | IC50 (HL-60) [µg/mL] |
| --- | --- | --- | --- | --- | --- | --- | --- |
| CC1(C)[C@@H](O)CC[C@]2(C)[C@H]3CC=C4[C@@H]5C[C@](C)(C(=O)O)CC[C@]5(C)CC[C@@]4(C)[C@]3(C)CC[C@@H]12 | 50 (≈ 109 µM) | > 25 | > 25 | > 25 | > 25 | > 25 |  |
| CC1(C)C(=O)CC[C@]2(C)[C@H]3CC=C4[C@@H]5C[C@](C)(C(=O)O)CC[C@]5(C)CC[C@@]4(C)[C@]3(C)CC[C@@H]12 | 25 (≈ 55 µM) | > 25 | 12 (≈ 26.4 µM) | 12 | > 25 | > 25 | 15 (≈ 33 µM) |
| C=C(C)[C@@H]1CC[C@]2(C)[C@H](CC=C3[C@@H]4C[C@](C)(C(=O)O)CC[C@]4(C)CC[C@]32C)[C@@]1(C)CCC(=O)O | > 100 | > 25 | > 25 | > 25 | > 25 | > 25 |  |
| CC1(C)[C@H](O)CC[C@]2(C)[C@H]3CC=C4[C@@H]5C[C@](C)(C(=O)O)CC[C@]5(C)CC[C@@]4(C)[C@]3(C)CC[C@@H]12 [KATONIC ACID] | 25 (≈ 54.7 µM) | > 25 | 25 (≈ 54.7 µM) | 16 | > 25 | > 25 |  |
| C=C(C)[C@@H]1CC[C@]2(C)[C@H](CC=C3[C@@H]4C[C@@](C)(C(=O)O)CC[C@]4(C)CC[C@]32C)[C@@]1(C)CCC(=O)O [KOETJAPIC ACID] | > 100 | > 25 | > 25 | > 25 | > 25 | > 25 |  |
| CC1(C)C(=O)CC[C@]2(C)C3=C(CC[C@@H]12)[C@@]1(C)CC[C@@]2(C)CC[C@@](C)(C(=O)O)C[C@@]2(O)[C@]1(C)[C@H](O)C3 [SANDORINIC ACID A] | 25 (≈ 51.4 µM) | 16 (≈ 32.9 µM) | 10 (≈ 20.5 µM) | 9 | 9 (≈ 18.5 µM) | 9 | 15 (≈ 30.8 µM) |
| CC1(C)C(=O)CC[C@]2(C)[C@H]3C[C@@H](O)[C@@]4(C)[C@]5(O)C[C@](C)(C(=O)O)CC[C@]5(C)CC[C@]4(C)C3=CC[C@@H]12 [SANDORINIC ACID B] | 50 (≈ 103 µM) | > 25 | 16 (≈ 32.9 µM) | 16 | 18 (≈ 37 µM) | > 25 |  |
| CC1(C)C(=O)CC[C@]2(C)C3=C(CC[C@@H]12)[C@@]1(C)CC[C@@]2(C)CC[C@@](C)(C(=O)O)C[C@H]2[C@]1(C)[C@H](O)C3 [SANDORINIC ACID C] |  | > 25 | > 25 | > 25 | > 25 | > 25 |  |
